Assay results reported in ChEMBL document CHEMBL3593244, “Design, synthesis and preliminary bioactivity evaluations of substituted quinoline hydroxamic acid derivatives as novel histone deacetylase (HDAC) inhibitors” (Bioorg Med Chem, 2015).
pIC50: −log10 of the molar value.

Key:
[1] = biological target: Histone deacetylase (HDAC1 and HDAC2) (Homo sapiens, UniProt Q13547+Q92769); test: Inhibition of HDAC1/2 in human HeLa cell nuclear extracts preincubated for 5 mins followed by substrate addition measured after 0.5 hrs by Color de Lys assay; format: cell-based
K562 = test: cells; format: functional, cell-based; conditions: Homo sapiens, K562, 48 h
Description: Cytotoxicity against human K562 cells assessed as inhibition of cell proliferation after 48 hrs by MTT assay

MDA-MB-231 = test: Cytotoxicity against human MDA-MB-231 cells assessed as inhibition of cell proliferation after 48 hrs by MTT assay; format: functional, cell-based; conditions: MDA-MB-231, 48 h
PC-3 = test: cells; format: functional, cell-based; conditions: Homo sapiens, PC-3, 48 h
Description: Cytotoxicity against human PC3 cells assessed as inhibition of cell proliferation after 48 hrs by MTT assay

A549 = test: cells; format: functional, cell-based; conditions: Homo sapiens, A549, 48 h
Description: Cytotoxicity against human A549 cells assessed as inhibition of cell proliferation after 48 hrs by MTT assay

Row | IC50 [1] | Compound | also measured
1 | 155 nM | O=C(CCCCCC(=O)NCc1ccc2cc(F)ccc2n1)NO | –
2 | > 1000 nM | O=C(CCCC(=O)NCc1ccc2ccccc2n1)NO | –
3 | 343 nM | O=C(CCCCCC(=O)NCc1cc(C(=O)NCc2ccccc2)c2cc(Br)ccc2n1)NO | –
4 | 146 nM | O=C(CCCCCCC(=O)NCc1ccc2cc(Br)ccc2n1)NO | –
5 | 444 nM | CCCCNC(=O)c1cc(CNC(=O)CCCCCC(=O)NO)nc2ccccc12 | –
6 | > 1000 nM | O=C(CCCCCCC(=O)NCc1cc(C(=O)Nc2ccccc2)c2cc(Br)ccc2n1)NO | –
7 | > 1000 nM | O=C(CCCCCCCC(=O)NCc1cc(C(=O)NCc2ccccc2)c2cc(Br)ccc2n1)NO | –
8 | > 1000 nM | O=C(CCCCC(=O)NCc1ccc2ccccc2n1)NO | –
9 | > 1000 nM | O=C(CCCC(=O)NCc1cc(C(=O)NCc2ccccc2)c2ccccc2n1)NO | –
10 | 196 nM | O=C(CCCCCC(=O)NCc1cc(C(=O)Nc2ccccc2)c2cc(Br)ccc2n1)NO | –
11 | 266 nM | O=C(CCCCCC(=O)NCc1ccc2ccccc2n1)NO | –
12 | > 1000 nM | O=C(CCCCC(=O)NCc1cc(C(=O)NCc2ccccc2)c2ccccc2n1)NO | –
13 | > 1000 nM | O=C(CCCCCCCC(=O)NCc1cc(C(=O)NCc2ccccc2)c2ccccc2n1)NO | –
14 | 562 nM | O=C(CCCCCCC(=O)NCc1cc(C(=O)Nc2ccccc2)c2ccccc2n1)NO | –
15 | 399 nM | O=C(CCCCCC(=O)NCc1cc(C(=O)NCc2ccccc2)c2ccccc2n1)NO | –
16 | 301 nM | O=C(CCCCCC(=O)NCc1cc(C(=O)Nc2ccccc2)c2ccccc2n1)NO | –
17 | > 1000 nM | CCCCNC(=O)c1cc(CNC(=O)CCCCCCC(=O)NO)nc2ccccc12 | –
18 | 132 nM | O=C(CCCCCC(=O)NCc1ccc2cc(I)ccc2n1)NO | pIC50 (K562): 5.61; pIC50 (MDA-MB-231): 5.85; pIC50 (PC-3): 5.07; pIC50 (A549): 5.59
19 | 642 nM | CNC(=O)c1cc(CNC(=O)CCCCCC(=O)NO)nc2ccccc12 | –
20 | 152 nM | O=C(CCCCCC(=O)NCc1ccc2cc(-c3ccccc3)ccc2n1)NO | –
21 | 341 nM | O=C(CCCCCC(=O)NCc1cc(C(=O)NCc2ccccc2)c2cc(-c3ccccc3)ccc2n1)NO | –
22 | > 1000 nM | O=C(CCCCCCC(=O)NCc1cc(C(=O)NCc2ccccc2)c2cc(Br)ccc2n1)NO | –
23 | 85 nM | O=C(CCCCCC(=O)NCc1ccc2cc(Br)ccc2n1)NO | pIC50 (K562): 5.31; pIC50 (MDA-MB-231): 6.05; pIC50 (PC-3): 5.03; pIC50 (A549): 5.41
24 | 120 nM | O=C(CCCCCC(=O)NCc1ccc2cc(Cl)ccc2n1)NO | pIC50 (K562): 5.47; pIC50 (MDA-MB-231): 5.74; pIC50 (PC-3): 5.04; pIC50 (A549): 5.57
25 | 780 nM | O=C(CCCCCCC(=O)NCc1cc(C(=O)NCc2ccccc2)c2ccccc2n1)NO | –
26 | 678 nM | O=C(CCCCCCC(=O)NCc1ccc2ccccc2n1)NO | –
27 | > 1000 nM | CNC(=O)c1cc(CNC(=O)CCCCCCC(=O)NO)nc2ccccc12 | –
